# Assay results from US6586596B2, “Acetylcholine enhancers” (priority 1998, dated 2003).
# Like-named read-outs stand apart in the source and are kept apart here.
# Columns and labels:
# 5HT3 receptor = target: T1, 5HT3 receptor (Rattus norvegicus, UniProt P35563); assay: Ex vivo binding of 5HT3 receptors, (3H)-zacopride autoradiography of brain sections; format: in vivo, Sprague-Dawley rats; conditions: 10 mg/kg i.p., 30 minutes, amygdala, 0.5 nM (3H)-zacopride
# T1 construct: from tissue; host or cells: rat brain sections (amygdala)
# T1 sequence (P35563 24-483): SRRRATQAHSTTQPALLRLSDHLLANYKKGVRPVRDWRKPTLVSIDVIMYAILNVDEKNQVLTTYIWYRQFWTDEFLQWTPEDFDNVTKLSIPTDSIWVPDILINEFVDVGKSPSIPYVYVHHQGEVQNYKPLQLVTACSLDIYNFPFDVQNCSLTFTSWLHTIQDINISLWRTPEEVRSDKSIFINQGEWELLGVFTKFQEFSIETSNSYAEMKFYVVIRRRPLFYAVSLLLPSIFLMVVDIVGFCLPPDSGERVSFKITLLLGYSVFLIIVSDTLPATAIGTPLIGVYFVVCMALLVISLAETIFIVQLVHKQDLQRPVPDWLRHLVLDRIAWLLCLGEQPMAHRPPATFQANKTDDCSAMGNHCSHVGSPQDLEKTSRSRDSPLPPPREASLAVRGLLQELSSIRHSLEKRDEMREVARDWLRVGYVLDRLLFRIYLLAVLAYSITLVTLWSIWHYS
# Description: Animals (Sprague-Dawley rats) were injected intraperitoneally with 10 mg/kg Cm. A (in 90% ethanol, 10% water, vehicle) (n=3) or vehicle (n=3). After thirty minutes animals were sacrificed and brains were rapidly dissected and frozen in isopentane maintained at −42° C. Sections (horizontal and coronal) were prepared on a cryostat and maintained at −20° C.
# Brain sections were removed from storage and thawed at room temperature for 30 minutes. Total 5HT3 receptor binding was measured in sections incubated with 0.5 nM (^3H)-zacopride (Amerhsam; zacorpide is a 5-HT3 selective ligand) in 50 mM HEPES/TRIS buffer. Nonspecific binding was determined in adjacent sections incubated in the presence of radioligand and 500 nM 5-HT. After a 10 minute incubation at room temperature, sections were washed in icecold buffer (2×1 minute) followed by a 10 second rinse in ice-cold distilled water. Sections were then dried in a stream of cold air overnight. After drying, sections were exposed to x-ray film (Kodak Hyperfilm) and exposed for 4 months.
# Autoradiograms were quantified using an automated image analysis system, DAGE camera IMAGE software. Mean optical density measurements were obtained from four individual measurements per group, control (vehicle injected) and Cm. A; background measurements were obtained from an area of x-ray on which no tissue was exposed. […]
# 5-HT3 receptor = target: T2, 5-HT3 receptor (Mus musculus, UniProt P23979); assay: serotonin 5-HT3 binding assay (NovaScreen), NIE-115 cells; conditions: 25° C., 60 minutes
# T2 construct: The receptor source was NIE-115 cells; host or cells: NIE-115 cells
# T2 sequence (P23979 24-489): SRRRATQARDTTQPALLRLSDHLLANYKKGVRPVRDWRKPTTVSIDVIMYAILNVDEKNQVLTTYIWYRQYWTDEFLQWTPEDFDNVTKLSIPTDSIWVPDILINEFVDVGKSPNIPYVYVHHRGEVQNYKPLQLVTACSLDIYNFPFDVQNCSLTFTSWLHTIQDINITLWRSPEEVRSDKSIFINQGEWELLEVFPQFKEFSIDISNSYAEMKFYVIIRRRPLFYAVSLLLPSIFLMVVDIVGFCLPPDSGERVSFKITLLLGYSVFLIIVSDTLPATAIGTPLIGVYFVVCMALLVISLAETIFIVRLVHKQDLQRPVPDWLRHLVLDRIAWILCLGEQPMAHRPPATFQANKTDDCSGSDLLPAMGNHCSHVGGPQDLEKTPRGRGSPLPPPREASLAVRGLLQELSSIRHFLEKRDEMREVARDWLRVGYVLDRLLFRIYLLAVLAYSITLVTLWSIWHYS
# Description: Binding affinity of a variety of compounds, including Cm.A, for the 5-HT3 receptor was investigated using a commercially available serotonin 5-HT3 binding assay (NovaScreen, Hanover, Md.). The receptor source was NIE-115 cells (See Lunnis, S. C. R. and Kilparick, G. J., 189: Evr. Jrnl. Pharmacol. 223 (1990); and Hoyer, D. and Heijt, H. C., 33 Mol. Pharmacol., 303 (1988)). The reference compound utilized was “MDL 72222,” a 5-HT3 receptor antagonist. Reactions were carried out in 20 mM HEPES (pH 7.4) containing 150 mM NaCl at 25° C. for 60 minutes. The reaction was terminated by rapid vacuum filtration onto glass fiber filters. Radioactivity trapped onto the filters was determined and compared with the control values.
# AChE = target: T3, AChE (Rattus norvegicus, UniProt P37136); format: in vivo; conditions: 1 hour after dosing
# T3 construct: from tissue; host or cells: rat brain (hippocampus, striatum, frontal cortex, parietal cortex)
# T3 sequence (P37136 32-614): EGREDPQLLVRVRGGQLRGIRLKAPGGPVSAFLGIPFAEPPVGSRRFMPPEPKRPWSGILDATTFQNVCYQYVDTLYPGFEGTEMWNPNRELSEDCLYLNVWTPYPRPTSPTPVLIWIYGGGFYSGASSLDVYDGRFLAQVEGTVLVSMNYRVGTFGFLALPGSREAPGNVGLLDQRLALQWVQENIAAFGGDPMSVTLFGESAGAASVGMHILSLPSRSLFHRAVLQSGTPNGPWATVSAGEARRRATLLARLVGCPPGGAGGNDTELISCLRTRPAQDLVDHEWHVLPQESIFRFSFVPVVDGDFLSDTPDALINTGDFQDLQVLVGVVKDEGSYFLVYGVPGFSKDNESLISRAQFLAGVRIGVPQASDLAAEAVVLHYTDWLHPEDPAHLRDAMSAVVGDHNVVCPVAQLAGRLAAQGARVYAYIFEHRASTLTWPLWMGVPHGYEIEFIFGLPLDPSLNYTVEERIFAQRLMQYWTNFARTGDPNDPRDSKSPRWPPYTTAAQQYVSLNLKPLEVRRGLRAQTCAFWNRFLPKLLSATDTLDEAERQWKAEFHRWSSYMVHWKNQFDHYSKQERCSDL
# Description: After 1 hour, rats were sacrificed and brains were isolated and divided into several portions. AChE activity in preparations from hippocampus, striatum, frontal cortex and parietal cortex was determined by Ellman's method.
smiles,measurement,setting,value
"COc1c2c(nc3ccccc13)CN(CCC1CCN(Cc3ccccc3)CC1)C2=O [Cm.A, 2-[2-(1-benzylpiperizin-4-yl)ethyl]-2,3-dihydro-9-methoxy-1H-pyrrolo[3,4-b]quinolin-1-one hemifumarate]",occupancy of 5HT3 receptor sites within the brain,5HT3 receptor,occupies 5HT3 receptor sites within the brain
same,IC50,"5-HT3 receptor; IC50, 20 mM HEPES pH 7.4, 150 mM NaCl",1180 nM
same,Ki,"5-HT3 receptor; Ki, 20 mM HEPES pH 7.4, 150 mM NaCl",552 nM
same,AChE activity Frontal cortex,AChE; 1 mg/kg p.o.,48.1 nmol/min/mg protein
same,AChE activity Hippocampus,AChE; 1 mg/kg p.o.,37.6 ± 0.8 nmol/min/mg protein
same,AChE activity Parietal cortex,AChE; 1 mg/kg p.o.,27.3 ± 0.5 nmol/min/mg protein
same,AChE activity Striatim,AChE; 1 mg/kg p.o.,238.9 nmol/min/mg protein
same,AChE activity Frontal cortex,AChE; 3 mg/kg p.o.,56 nmol/min/mg protein
same,AChE activity Hippocampus,AChE; 3 mg/kg p.o.,42.1 ± 1.3 nmol/min/mg protein
same,AChE activity Parietal cortex,AChE; 3 mg/kg p.o.,31.3 ± 1.6 nmol/min/mg protein
same,AChE activity Striatim,AChE; 3 mg/kg p.o.,219.9 nmol/min/mg protein
same,AChE activity Frontal cortex,AChE; 10 mg/kg p.o.,58.4 nmol/min/mg protein
same,AChE activity Hippocampus,AChE; 10 mg/kg p.o.,48.3 ± 2.9 nmol/min/mg protein
same,AChE activity Parietal cortex,AChE; 10 mg/kg p.o.,32.6 ± 1.7 nmol/min/mg protein
same,AChE activity Striatim,AChE; 10 mg/kg p.o.,274.0 nmol/min/mg protein
same,inhibition of AChE activity (text on Table 3),AChE; p.o.,inhibition of AChE in a nondose dependent manner
